Earlier results on three compounds are cited in patent US20230071314A1, “POLYMERIC COMPOSITIONS FOR SUSTAINED DELIVERY OF VMAT2 INHIBITORS” (Foresee Pharmaceuticals Co., Ltd., priority 2021, published 2023).

One data set has as its target dopamine D2 (Homo sapiens, UniProt P14416). Particulars: Harriott et al. 2018; read-out: off-target binding affinity to dopamine D2.
Data set [1] deals with serotonin 5-HT7 receptors (Homo sapiens, UniProt P34969). The following applies: Harriott et al. 2018; read-out: off-target binding affinity to serotonin 5-HT7 receptors.

Read-outs that look alike come from different tables or passages of the source.

serotonin 5-HT7 receptors, sequence (P34969 whole entry): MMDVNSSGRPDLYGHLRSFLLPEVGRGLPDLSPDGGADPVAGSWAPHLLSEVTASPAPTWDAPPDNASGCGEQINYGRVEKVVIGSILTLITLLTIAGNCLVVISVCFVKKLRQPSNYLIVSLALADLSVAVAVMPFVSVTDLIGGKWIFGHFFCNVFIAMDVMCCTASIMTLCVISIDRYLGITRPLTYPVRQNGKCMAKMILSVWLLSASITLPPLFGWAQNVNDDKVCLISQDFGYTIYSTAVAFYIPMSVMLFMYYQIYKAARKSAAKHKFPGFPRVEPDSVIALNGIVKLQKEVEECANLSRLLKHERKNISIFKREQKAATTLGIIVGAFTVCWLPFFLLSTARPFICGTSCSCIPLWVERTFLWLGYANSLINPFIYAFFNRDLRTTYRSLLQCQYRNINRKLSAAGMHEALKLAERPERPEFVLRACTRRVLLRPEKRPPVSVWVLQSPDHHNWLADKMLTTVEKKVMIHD
dopamine D2, sequence (P14416 1-414 isoform P14416-2): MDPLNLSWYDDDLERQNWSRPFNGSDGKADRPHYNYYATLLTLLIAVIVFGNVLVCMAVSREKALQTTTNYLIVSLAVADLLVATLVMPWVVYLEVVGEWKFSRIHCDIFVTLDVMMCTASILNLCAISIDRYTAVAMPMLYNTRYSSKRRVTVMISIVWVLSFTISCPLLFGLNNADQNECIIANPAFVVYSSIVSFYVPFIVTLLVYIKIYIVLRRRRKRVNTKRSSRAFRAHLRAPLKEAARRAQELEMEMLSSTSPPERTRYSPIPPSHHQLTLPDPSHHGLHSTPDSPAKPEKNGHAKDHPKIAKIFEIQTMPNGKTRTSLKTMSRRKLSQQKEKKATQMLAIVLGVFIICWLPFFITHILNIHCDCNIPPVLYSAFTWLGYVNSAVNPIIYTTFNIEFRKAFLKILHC

Consider `COc1cc2c(cc1OC)C1CC(O)C(CC(C)C)CN1CC2` [S,S,S-DHTBZ ((−)-α), [−]-α-dihydrotetrabenazine], for which the Ki at dopamine D2 was 0.18 µM; in data set [1], 0.071 µM.
As for `COc1cc2c(cc1OC)C1CC(O)C(CC(C)C)CN1CC2` [R,S,S-DHTBZ ((−)-β), [−]-β-dihydrotetrabenazine], the Ki at dopamine D2 is 0.053 µM; in data set [1], 0.0059 µM.
As to Ivermectin, the “increase of cumulative release” value was 2.4-2.9 times (Ivermectin loading increased from 1% to 2%) and 3.1-3.7 times (Ivermectin loading increased from 1% to 4%).
